One data set deals with DNA. Set-up: method as in PMID 25888926, PMID 28623355. The following applies: cited from earlier work.
A further data set deals with CHO-K1. Kind of data set: MTT assay, wild-type cells. The note with it: 72 h. The data set is classed as cell-based, Chinese hamster. The source says:
(§1) The human cervical carcinoma HeLa cells and human colorectal carcinoma cells HCT116 were kindly supplied by Professor B. Keppler, University of Vienna (Austria). Human rhabdomyosarcoma RD cells were purchased from the American Type Culture Collection (ATCC, Manassas, VA). Human breast cancer MCF-7 cells, human skin melanoma 518A2 cells, and human MRC5pd30 cells derived from normal lung tissue were purchased from the European Collection of Authenticated Cell Cultures (ECACC) (Salisbury, U.K.). Chinese hamster ovary CHO-K1 cell line (wild type) and its derivative MMC-2 carrying the ERCC3/XPB mutation (NER-deficient) cell line were kindly supplied by Dr. […], Cancer Research Institute, Slovak Academy of Sciences, Bratislava (Slovakia). In vitro antiproliferative activity of Ru complexes was determined by the MTT or, alternatively, SRB assay as already described,[84] after 72 h of incubation of cells with various concentrations of the Ru complex. The reported IC50 values are an average of three independent experiments, each consisting of three replicates per concentration.
(In general: Formazan colour is commonly taken as a measure of viable cells.)

The subject of another data set is HCT116 (3D). Kind of data set: Cytotoxicity in 3D spheroids (colonospheres), Cell Titer-Glo 3D. In kind it is cell-based, human. As to the method:
A spontaneous spheroid formation was used to generate colonospheres derived from the HCT116 cell line. The HCT116 cells were seeded on 96-well ultralow attachment plates (1400 cells/well) and cultivated in a tumor sphere-forming medium (DMEM/F12, supplemented with B27 (Invitrogen), BSA, bFGF (10 ng mL^–1), and EGF (20 ng mL^–1)) for 4 days. After the incubation period, colonospheres were treated with Ru complexes for another 3 days. The viability of colonospheres was determined by the Cell Titer-Glo 3D cell viability assay (Promega) according to the manufacturer’s instructions. The reported IC50 values are the average of three independent experiments, each consisting of three replicates per concentration level. Bright-field images of the spheroids were taken as well to determine the effect on the morphology of the spheroids.

In the next data set the test system is RD. Kind of data set: MTT antiproliferative assay. In kind it is cell-based, human. The following applies: 72 h, mean ± SD. The procedure: All of the cell lines were cultivated in DMEM medium (high glucose 4.5 g L^–1, PAA, Pasching, Austria) supplemented with gentamycin (50 μg mL^–1, Serva, Heidelberg, Germany) and 10% heat-inactivated fetal bovine serum (PAA). The medium for MRC5pd30 cells was further supplemented by 1% nonessential amino acids (Sigma-Aldrich, Prague, Czech Republic). All cells were cultured as adherent monolayers in a humidified incubator at 37 °C in a 5% CO2 atmosphere and subcultured twice a week with an appropriate plating density. In vitro antiproliferative activity of Ru complexes was determined by the MTT or, alternatively, SRB assay as already described,[84] after 72 h of incubation of cells with various concentrations of the Ru complex. The reported IC50 values are an average of three independent experiments, each consisting of three replicates per concentration.

For a further data set, the system named is HCT116. Further details: method as in PMID 30740808. The following applies: MTT, 72 h; cited from earlier work.
A further data set relates to 518A2. Set-up: method as in PMID 32555811. The note with it: MTT, 72 h; cited from earlier work.
In a further data set the test system is HeLa. Set-up: method as in PMID 30740808. The following applies: MTT, 72 h; cited from earlier work.
The test system of another data set is MRC5pd30. Further details: method as in PMID 30740808. The following applies: MTT, 72 h; cited from earlier work.
Another data set has as its system MCF-7. Further details: method as in PMID 30740808. The following applies: MTT, 72 h; cited from earlier work.
The subject of another data set is MMC-2. Kind of data set: MTT assay, NER-deficient cells. The data set is classed as cell-based, Chinese hamster. The following applies: 72 h.
Description: as §1

What is called IC50 is the concentration at which inhibition is half-maximal.

`N.N.[Cl][Pt][Cl]` [cisplatin]: the “intracellular platinum that reaches the nucleus and binds to DNA” value with DNA was 2–3%. The half-maximal inhibitory concentration (IC50) is 54 ± 6 µM with CHO-K1; 44.6 ± 1.8 µM with HCT116 (3D) (Cell Titer-Glo, spheroids, 72 h of treatment); 4.6 ± 0.3 µM in the data set with RD; 8 ± 1 µM in the data set with HCT116; 2600 ± 700 nM in the data set with 518A2; 14 ± 3 µM in the data set on HeLa. The concentration for half-maximal inhibition (IC50) in the data set with MRC5pd30 is 11.7 ± 0.8 µM; in the data set on MCF-7, 13 ± 3 µM; in the data set on MMC-2, 5.5 ± 0.8 µM. Besides, the “effect on the morphology of 3D spheroids” value with HCT116 (3D) (20 µM, 72 h, bright-field images) is “heterogeneous morphology with several dissociated cell clumps”.
